Starred links: 1 amine or outer side, 2 acyl side, 3 side chain; linkers in the order of their positions; H or OH if unused. Positions of bridges follow the written chain, without caps; N, C: chain ends. Non-standard residues stand in square brackets, D forms with d. Residues, ends and D or L forms follow the SMILES beside them. ξ: configuration not given here. X58 = O=C([C@@H]1[C@H](OCC=[*:3])CCN1[*:1])[*:2]; Ala(imidazol-2-yl) = N[C@@H](Cc1ncc[nH]1)C(=O)O; Trp(5-OH) = N[C@@H](Cc1c[nH]c2ccc(O)cc12)C(=O)O; Phe(4-COOH) = N[C@@H](Cc1ccc(C(=O)O)cc1)C(=O)O; Trp(5-F) = N[C@@H](Cc1c[nH]c2ccc(F)cc12)C(=O)O; Isophthaloyl = O=C(c1cccc(C(=O)[*:2])c1)[*:1]; Trp(7-aza) = N[C@@H](Cc1c[nH]c2ncccc12)C(=O)O; X3 = O=C(CCSCc1cc(F)cc(CSCCN[*:1])c1)[*:2]; X57 = O=C([C@@H](CCCCC=[*:3])N[*:1])[*:2]; Pro(cis-4-F) = O=C(O)[C@@H]1C[C@H](F)CN1; X4 = O=C(CCSCc1cccc(CSCCN[*:1])c1)[*:2]; mXylylene = c1cc(C[*:1])cc(C[*:2])c1; AEF = NCCOc1ccc(C[C@H](N)C(=O)O)cc1; Adipoyl = O=C(CCCCC(=O)[*:2])[*:1]; Glutaryl = O=C(CCCC(=O)[*:2])[*:1]; Lys(Me2) = CN(C)CCCC[C@H](N)C(=O)O; X34 = O=C(CCC1CCN([*:1])CC1)[*:2]; Hyp = O=C(O)[C@@H]1C[C@@H](O)CN1; ξAla(CF3) = NC(CC(F)(F)F)C(=O)O; Aad = N[C@@H](CCCC(=O)O)C(=O)O; Lys(Me) = CNCCCC[C@H](N)C(=O)O; aThr = C[C@H](O)[C@H](N)C(=O)O; Suc = O=C(CCC(=O)[*:2])[*:1]; αMeP = C[C@@]1(C(=O)O)CCCN1; 3Amb = NCc1cccc(C(=O)O)c1; Orn = NCCC[C@H](N)C(=O)O; Dab = NCC[C@H](N)C(=O)O; Dap = NC[C@H](N)C(=O)O; AEEA = NCCOCCOCC(=O)O; Mpa = O=C(O)CCS
Molecular target: PCSK9 (Homo sapiens (Human), UniProt Q8NBP7)
Experiment: PCSK9 Alexa FRET Standard assay (displacement of AlexaFluor647 tagged cyclic peptide Reagent A)
Type: binding
Conditions: PCSK9 Alexa FRET Standard assay, 0.5 nM PCSK9, 20 nM AF cyclic peptide Reagent A; read-out: IC50
Method: A solution containing 1 nM biotinylated PCSK9+2.5 nM Lance Streptavidin Europium (Strep-Eu) was made in 50 mM HEPES pH 7.4, 0.15 M NaCl, 5 mM CaCl2), 0.01% BSA, and 0.01% Surfactant P20. A separate solution containing 40 nM of the AlexaFluor tagged cyclic peptide was made in the same buffer system. An Echo was used to transfer 0.750 ul of compound to an assay plate followed by the addition of 15 ul of PCSK9+Stept-Eu and 15 ul of AF peptide. The final assay volume was 30.750 ul containing 0.5 nM PCSK9, 1.25 nM Strep-Eu, and 20 nM AF cyclic peptide. The reaction was incubated at room temperature for at least two hours prior to fluorescence measurements using an Envision Multilabel Reader. IC50 values were determined by fitting data to a sigmoidal dose-response curve using nonlinear regression. Ki was then calculated from the IC50 and the KD of AF cyclic peptide. Counts (B-counts) of the europium-labeled PCSK9 were followed to observe if compounds were […]. A fall off of the B-counts likely indicated a false positive of inhibition. Data from this procedure was reported as “A=‘numerical value’ (nanomolar)”

Sequence of PCSK9 (Q8NBP7 153-692): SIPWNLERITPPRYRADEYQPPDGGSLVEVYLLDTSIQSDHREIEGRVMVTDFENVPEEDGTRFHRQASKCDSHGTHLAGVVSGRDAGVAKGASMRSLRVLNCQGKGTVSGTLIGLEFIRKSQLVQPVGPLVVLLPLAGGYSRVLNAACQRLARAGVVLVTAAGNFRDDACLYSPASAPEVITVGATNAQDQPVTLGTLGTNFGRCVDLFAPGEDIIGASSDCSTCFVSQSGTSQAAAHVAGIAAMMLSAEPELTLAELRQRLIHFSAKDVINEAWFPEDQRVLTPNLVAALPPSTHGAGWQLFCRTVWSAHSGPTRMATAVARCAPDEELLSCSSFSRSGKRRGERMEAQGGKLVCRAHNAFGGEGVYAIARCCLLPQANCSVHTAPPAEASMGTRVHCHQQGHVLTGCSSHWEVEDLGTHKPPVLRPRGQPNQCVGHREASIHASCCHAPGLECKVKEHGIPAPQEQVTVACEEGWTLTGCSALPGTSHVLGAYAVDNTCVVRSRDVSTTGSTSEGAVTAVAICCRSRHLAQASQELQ

Structure (SMILES) | IC50
COc1ccc(C[C@@H]2NC(=O)[C@H](Cc3ncc[nH]3)NC(=O)[C@H](CC(=O)O)NC(=O)[C@H](Cc3c[nH]c4ccc(F)cc34)NC(=O)[C@H](Cc3c[nH]c4ccc(F)cc34)NC(=O)[C@@H](C)NC(=O)[C@H](CNC(=O)COCCOCCN)NC(=O)CCSCc3cccc(c3)CSCCNC(=O)[C@]3(C)CCCN3C2=O)cc1 [Compound 447] (cyclo(D[Ala(imidazol-2-yl)]Y(Me)[αMeP][X4][Dap](AEEA)[dA][Trp(5-F)][Trp(5-F)])) | 0.1 to 1 µM
C[C@@]12CCCN1C(=O)[C@H](Cc1ccc(O)cc1)NC(=O)c1cccc(c1)CNC(=O)[C@H](Cc1c[nH]c3ccc(F)cc13)NC(=O)[C@H](Cc1c[nH]c3ccc(F)cc13)NC(=O)CNC(=O)[C@H](CCCCN)NC(=O)CCSCc1cccc(c1)CSC[C@@H](C(N)=O)NC2=O [Compound 088] ([Mpa]KG[Trp(5-F)][Trp(5-F)][3Amb]Y[αMeP]C-NH2; linker 1-9 via mXylylene) | 0.1 to 1 µM
COc1ccc(C[C@@H]2NC(=O)[C@H]([C@H](C)O)NC(=O)[C@@H]3C[C@H](F)CN3C(=O)[C@H](Cc3c[nH]c4ccc(F)cc34)NC(=O)[C@H](Cc3c[nH]c4ccc(F)cc34)NC(=O)[C@@H](C)NC(=O)CCCCC(=O)NCCOc3ccc(cc3)C[C@@H](C(N)=O)NC(=O)[C@]3(C)CCCN3C2=O)cc1 [Compound 099] ([dA][Trp(5-F)][Trp(5-F)][Pro(cis-4-F)][aThr]Y(Me)[αMeP][AEF]-NH2; linker N-8 via Adipoyl) | 21 to 50 µM
COc1ccc(C[C@@H]2NC(=O)[C@H]([C@H](C)O)NC(=O)[C@@H]3C[C@H](F)CN3C(=O)[C@H](Cc3c[nH]c4ccc(F)cc34)NC(=O)[C@H](Cc3c[nH]c4ccc(F)cc34)NC(=O)[C@@H](C)NC(=O)[C@H](C)NC(=O)[C@@H](NC(C)=O)CCNC(=O)c3cccc(c3)C(=O)NCCC[C@@H](C(N)=O)NC(=O)[C@]3(C)CCCN3C2=O)cc1 [Compound 134] (Ac-[Dab]A[dA][Trp(5-F)][Trp(5-F)][Pro(cis-4-F)][aThr]Y(Me)[αMeP][Orn]-NH2; linker 1-10 via Isophthaloyl) | 21 to 50 µM
COc1ccc(C[C@@H]2NC(=O)[C@H](Cc3cnc[nH]3)NC(=O)[C@H](CC(=O)O)NC(=O)[C@H](Cc3c[nH]c4cc(F)ccc34)NC(=O)[C@H](Cc3c[nH]c4ccc(F)cc34)NC(=O)[C@@H](C)NC(=O)[C@H](CCCCN)NC(=O)CCc3cn(nn3)-c3ccc(cc3)C[C@@H](C(N)=O)NC(=O)[C@]3(C)CCCN3C2=O)cc1 [Compound 368] | 21 to 50 µM
COc1ccc(C[C@@H]2NC(=O)[C@H](Cc3cnc[nH]3)NC(=O)[C@H](CC(=O)O)NC(=O)[C@H](Cc3c[nH]c4ccc(F)cc34)NC(=O)[C@H](Cc3c[nH]c4ccc(F)cc34)NC(=O)[C@@H](C)NC(=O)CCC3CCN(CC3)C(=O)c3ccc(cc3)C[C@@H](C(N)=O)NC(=O)[C@]3(C)CCCN3C2=O)cc1 [Compound 389] ([X34][dA][Trp(5-F)][Trp(5-F)]DHY(Me)[αMeP][Phe(4-COOH)]-NH2; lactam N-9) | 21 to 50 µM
COc1ccc(C[C@@H]2NC(=O)[C@H](Cc3cnc[nH]3)NC(=O)[C@H](CC(=O)O)NC(=O)[C@H](Cc3c[nH]c4ccc(F)cc34)NC(=O)[C@H](Cc3c[nH]c4ccc(F)cc34)NC(=O)[C@@H](C)NC(=O)[C@H](CCCC(=O)O)NC(=O)CCSCc3cccc(c3)CSCCNC(=O)[C@]3(C)CCCN3C2=O)cc1 [Compound 427] (cyclo([Aad][dA][Trp(5-F)][Trp(5-F)]DHY(Me)[αMeP][X4])) | 21 to 50 µM
COc1ccc(C[C@@H]2NC(=O)[C@H](Cc3ncc[nH]3)NC(=O)[C@H](CC(=O)O)NC(=O)[C@H](Cc3c[nH]c4ccc(F)cc34)NC(=O)[C@H](Cc3c[nH]c4ccc(F)cc34)NC(=O)[C@@H](C)NC(=O)[C@H](CCCCN(C)C)NC(=O)CCSCc3cccc(c3)CSCCNC(=O)[C@]3(C)CCCN3C2=O)cc1 [Compound 464] (cyclo(D[Ala(imidazol-2-yl)]Y(Me)[αMeP][X4][Lys(Me2)][dA][Trp(5-F)][Trp(5-F)])) | 21 to 50 µM
C[C@@]12CCCN1C(=O)[C@H](Cc1ccc(O)cc1)NC(=O)CN1C(=O)[C@H](N=C(C3CCCCC3)c3ccccc31)NC(=O)[C@H](Cc1c[nH]c3ccc(F)cc13)NC(=O)[C@H](Cc1c[nH]c3ccc(F)cc13)NC(=O)CNC(=O)[C@H](CCCCN)NC(=O)CCSCc1cccc(c1)CSC[C@@H](C(N)=O)NC2=O [Compound 128] | 21 to 50 µM
NCCCC[C@@H]1NC(=O)CCSCc2cccc(c2)CSC[C@@H](C(N)=O)NC(=O)[C@@H]2CCCN2C(=O)[C@H](Cc2c[nH]c3ncccc23)NC(=O)[C@H](Cc2c[nH]cn2)NC(=O)[C@H](CC(=O)O)NC(=O)[C@H](Cc2c[nH]c3ccc(F)cc23)NC(=O)[C@H](Cc2c[nH]c3ccc(F)cc23)NC(=O)CNC1=O [Compound 235] ([Mpa]KG[Trp(5-F)][Trp(5-F)]DH[Trp(7-aza)]PC-NH2; linker 1-10 via mXylylene) | 21 to 50 µM
COc1ccc(C[C@@H]2NC(=O)[C@@H]([C@H](C)O)NC(=O)[C@@H]3C[C@@H](O)CN3C(=O)[C@H](Cc3c[nH]c4ccc(F)cc34)NC(=O)[C@H](Cc3c[nH]c4ccc(F)cc34)NC(=O)[C@@H](C)NC(=O)[C@H](CCCCN)NC(=O)CCSCc3cc(F)cc(c3)CSCCNC(=O)[C@]3(C)CCCN3C2=O)cc1 [Compound 087] (cyclo([Hyp][dT]Y(Me)[αMeP][X3]K[dA][Trp(5-F)][Trp(5-F)])) | 21 to 50 µM
COc1ccc(C[C@@H]2NC(=O)[C@H]([C@@H](C)O)NC(=O)[C@@H]3C[C@H](F)CN3C(=O)[C@H](Cc3c[nH]c4ccc(F)cc34)NC(=O)[C@H](Cc3c[nH]c4ccc(F)cc34)NC(=O)[C@@H](C)NC(=O)CCCC(=O)NCCOc3ccc(cc3)C[C@@H](C(N)=O)NC(=O)[C@]3(C)CCCN3C2=O)cc1 [Compound 081] ([dA][Trp(5-F)][Trp(5-F)][Pro(cis-4-F)]TY(Me)[αMeP][AEF]-NH2; linker N-8 via Glutaryl) | 0.1 to 1 µM
C[C@@]12CCCN1C(=O)[C@H](Cc1ccc(O)cc1)NC(=O)CN1C(=O)[C@H](CCc3ccccc31)NC(=O)[C@H](Cc1c[nH]c3ccc(F)cc13)NC(=O)[C@H](Cc1c[nH]c3ccc(F)cc13)NC(=O)CNC(=O)[C@H](CCCCN)NC(=O)CCSCc1cccc(c1)CSC[C@@H](C(N)=O)NC2=O [Compound 110] | 21 to 50 µM

Results, then the compound that gave them:

IC50 | Structure (SMILES)
21 to 50 µM | CC(=O)N[C@@H]1CCCC/C=C/CO[C@H]2C[C@@H](C(N)=O)N(C2)C(=O)[C@H](Cc2ccc(O)cc2)NC(=O)[C@H](Cc2cnc[nH]2)NC(=O)[C@H](CC(=O)O)NC(=O)[C@H](Cc2c[nH]c3ccc(F)cc23)NC(=O)[C@H](Cc2c[nH]c3ccc(F)cc23)NC(=O)CCNC1=O [Compound 418]
21 to 50 µM | COc1ccc(C[C@@H]2NC(=O)[C@H](Cc3cnc[nH]3)NC(=O)[C@H](CC(=O)O)NC(=O)[C@H](Cc3c[nH]c4ccc(F)cc34)NC(=O)[C@H](Cc3c[nH]c4ccc(F)cc34)NC(=O)[C@@H](C)NC(=O)CCC(=O)NCCOc3ccc(cc3)C[C@@H](C(N)=O)NC(=O)[C@]3(C)CCCN3C2=O)cc1 [Compound 436] ([dA][Trp(5-F)][Trp(5-F)]DHY(Me)[αMeP][AEF]-NH2; linker N-8 via Suc)
0.00011 to 0.1 µM | CC(=O)N[C@@H]1CCCC/C=C\CO[C@@H]2CCN(C(=O)[C@H](Cc3ccc(O)cc3)NC(=O)[C@H](Cc3cnc[nH]3)NC(=O)[C@H](CC(=O)O)NC(=O)[C@H](Cc3c[nH]c4ccc(F)cc34)NC(=O)[C@H](Cc3c[nH]c4ccc(F)cc34)NC(=O)CNC1=O)[C@@H]2C(N)=O [Compound 471] (Ac-[X57]G[Trp(5-F)][Trp(5-F)]DHY[X58]-NH2; staple (Z) 1-8)
21 to 50 µM | COc1ccc(C[C@@H]2NC(=O)[C@H](Cc3ncc[nH]3)NC(=O)[C@H](CC(=O)O)NC(=O)[C@H](Cc3c[nH]c4ccc(F)cc34)NC(=O)[C@H](Cc3c[nH]c4ccc(F)cc34)NC(=O)[C@@H](C)NC(=O)C(CC(F)(F)F)NC(=O)CCSCc3cccc(c3)CSCCNC(=O)[C@]3(C)CCCN3C2=O)cc1 (some centres unmarked) [Compound 444] (cyclo(D[Ala(imidazol-2-yl)]Y(Me)[αMeP][X4][ξAla(CF3)][dA][Trp(5-F)][Trp(5-F)]))
21 to 50 µM | COc1ccc(C[C@@H]2NC(=O)[C@H]([C@@H](C)O)NC(=O)[C@@H]3C[C@H](F)CN3C(=O)[C@H](Cc3c[nH]c4ccc(F)cc34)NC(=O)[C@H](Cc3c[nH]c4ccc(F)cc34)NC(=O)[C@@H](C)NC(=O)[C@H](NC(C)=O)CCC(=O)NCCOc3ccc(cc3)C[C@@H](C(N)=O)NC(=O)[C@]3(C)CCCN3C2=O)cc1 [Compound 056] (Ac-[dE][dA][Trp(5-F)][Trp(5-F)][Pro(cis-4-F)]TY(Me)[αMeP][AEF]-NH2; lactam 1-9)
1 to 12.1 µM | CNCCCC[C@@H]1NC(=O)CCSCc2cc(F)cc(c2)CSCCNC(=O)[C@]2(C)CCCN2C(=O)[C@H](Cc2ccc(OC)cc2)NC(=O)[C@H](Cc2ncc[nH]2)NC(=O)[C@H](CC(=O)O)NC(=O)[C@H](Cc2c[nH]c3ccc(F)cc23)NC(=O)[C@H](Cc2c[nH]c3ccc(F)cc23)NC(=O)[C@@H](C)NC1=O [Compound 468] (cyclo(D[Ala(imidazol-2-yl)]Y(Me)[αMeP][X3][Lys(Me)][dA][Trp(5-F)][Trp(5-F)]))
0.00011 to 0.1 µM | C[C@@]12CCCN1C(=O)[C@H](Cc1ccc(O)cc1)NC(=O)[C@H](Cc1cnc[nH]1)NC(=O)[C@H](CC(=O)O)NC(=O)[C@H](Cc1c[nH]c3ccc(O)cc13)NC(=O)[C@H](Cc1c[nH]c3ccc(O)cc13)NC(=O)CNC(=O)[C@H](CCCCN)NC(=O)CCSCc1cccc(c1)CSC[C@@H](C(N)=O)NC2=O [Compound 415] ([Mpa]KG[Trp(5-OH)][Trp(5-OH)]DHY[αMeP]C-NH2; linker 1-10 via mXylylene)

— patent US11530244B2, “Cyclic polypeptides for PCSK9 inhibition” (priority 2018, dated 2022)
